Target: T1, Stat5a (Homo sapiens, UniProt P42229)
T1 sequence (P42229 1-794): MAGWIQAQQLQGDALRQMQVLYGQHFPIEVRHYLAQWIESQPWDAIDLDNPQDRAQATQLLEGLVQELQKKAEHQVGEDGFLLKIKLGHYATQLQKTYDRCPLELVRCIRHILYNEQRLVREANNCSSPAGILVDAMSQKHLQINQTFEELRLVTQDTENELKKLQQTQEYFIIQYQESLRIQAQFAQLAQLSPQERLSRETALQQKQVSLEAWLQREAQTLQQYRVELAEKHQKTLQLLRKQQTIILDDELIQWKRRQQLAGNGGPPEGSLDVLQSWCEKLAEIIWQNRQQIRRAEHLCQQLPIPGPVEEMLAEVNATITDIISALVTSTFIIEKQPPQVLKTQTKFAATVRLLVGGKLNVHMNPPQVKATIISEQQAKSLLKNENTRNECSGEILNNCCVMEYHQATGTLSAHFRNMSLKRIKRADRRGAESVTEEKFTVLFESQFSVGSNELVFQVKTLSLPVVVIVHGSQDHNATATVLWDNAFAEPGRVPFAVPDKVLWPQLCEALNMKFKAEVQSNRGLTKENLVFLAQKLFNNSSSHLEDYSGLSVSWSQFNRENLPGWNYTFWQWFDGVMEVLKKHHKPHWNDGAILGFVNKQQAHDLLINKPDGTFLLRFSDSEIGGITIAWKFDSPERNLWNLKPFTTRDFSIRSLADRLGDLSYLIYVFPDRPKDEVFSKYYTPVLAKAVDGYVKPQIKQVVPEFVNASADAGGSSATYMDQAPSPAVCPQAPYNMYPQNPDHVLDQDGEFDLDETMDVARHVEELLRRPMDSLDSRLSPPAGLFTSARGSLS
Experiment: Stat5a dimerization (FLAG-/MYC-tagged Stat5a co-immunoprecipitation) in PC-3 cells
Assay type: cell-based
Set-up: expressed in transfected cells; host or cells: PC-3 human prostate cancer cells
Settings: 2 hours pretreatment, then hPrl 10 nM 30 minutes
Method: (§1) FLAG-tagged Stat5a and MYC-tagged Stat5a were generated by standard molecular biology cloning techniques. Plasmid pCMV3-FLAG-Stat5a, pCMV3-MYC-Stat5a and pPr1R were co-transfected using FuGENE6 (Roche) into PC-3 cells (2 μg of each plasmid per 1×10^7 cells). The cells were starved for 20 hours, pretreated with test compound for 2 hours, then stimulated with hPrl (10 nM) in RPMI 1640 without serum for 30 minutes. The cell lysates were immunoprecipitated with 25 μl anti-FLAG M2 […] affinity gel (2 μg/ml, Sigma), anti-MYC pAb (1 μg/ml, Upstate) or normal rabbit serum (NRS). The primary antibodies were used in the immunoblottings at the following concentrations: anti-FLAG pAb (1:1000; Stratagene), anti-MYC mAb (1:1000; Sigma), anti-Stat5a/b mAb (1:250) (Transduction Laboratories) detected by horseradish peroxidase-conjugated secondary antibodies. The results are shown in FIG. 3A for Compound 1 and FIG. 3B for Compound 2.
Lanes 1, 2, 4, 6 and 8 represent cells stimulated with human prolactin (Prl) for 30 minutes which induces dimerization of Stat5. Two hours prior to Prl-stimulation, the cells had been treated with DMSO (lanes 1-4), the control compound C5 (lanes 7 and 8) and either Compound 1 (lanes 5 and 6 in FIG. 3A) or Compound 2 (lanes 5 and 6 in FIG. 3B). […] It should be noted the drug effect in this study was not due to cell apoptosis induction, as the treatment time was only 2 hours. Treatment of at least 48 hours is required for the compound to induce prostate cancer cell apoptosis.
as §1, with “and pPrlR” for “and pPr1R”, “hours, pre-treated” for “hours, pretreated”, “with NBPP” for “with test compound”, “2 h,” for “2 hours,”, “antibodies.” for “antibodies. The results are shown in FIG. 3A for Compound 1 and FIG. 3B for Compound 2.”
Lanes 1, 2, 4, 6 and 8 represent cells stimulated with human prolactin (Prl) for 30 minutes which induces dimerization of Stat5. Two hours prior to Prl-stimulation, the cells had been treated with DMSO (lanes 1-4), the control compound C5 (lanes 5 and 6) or NBPP (lanes 7 and 8) to test whether the Stat5a/b-inhibitor compound, NBPP, would be able to inhibit dimerization of StatS. […] It should be noted the drug effect in this study was not due to cell apoptosis induction, as the treatment time was only 2 hours. Treatment of at least 48 hours is required for the compound to induce prostate cancer cell apoptosis.
FLAG-tagged Stat5a and MYC-tagged Stat5a were generated by standard molecular biology cloning techniques.as follows. […] The primary antibodies were used in the immunoblottings at the following concentrations: anti-FLAG pAb (1:1000; Stratagene), anti-MYC mAb (1:1000; Sigma), anti-Stat5a/b mAb (1:250) (Transduction Laboratories) detected by horseradish peroxidase-conjugated secondary antibodies. […]

Nc1nc(SCc2cccnc2)[nH]c(=O)c1NC(=O)c1ccco1 [Compound C5, reference compound]
effect on Stat5a dimerization: did not inhibit dimerization of Stat5a
